Measurements from patent publication US12612387B2, “RAS inhibitors and methods of using the same” (Jazz Pharmaceuticals Ireland Limited, priority 2020, dated 2026).

Assays:
[1] = target: T1, K-RAS G12D (Homo sapiens, UniProt P01116, G12D); assay: Compound depletion assay, K-RAS G12D; format: binding; conditions: G12D protein 20 μM, compound 8 μM, 25° C.
T1 construct: His tag; purchased Stratech
Procedure: (§1) Compound Depletion Assay Method
(§2) Lyophilized human K-RAS (12 Cys) protein (His tag) and human K-RAS (12 Asp) protein (His tag) were purchased from Stratech and reconstituted at 30 μM in water. The protein concentration of K-RAS G12C and K-RAS G12D was adjusted to 20 μM in K-RAS Assay Buffer (20 mM HEPES pH 7.5, 150 mM NaCl, 1 mM MgCl2). A 49 μl aliquot of protein solution was transferred to 1.5 ml eppendorfs and incubated at room temperature for 10 minutes. A 1 μl aliquot of compound solution in DMSO was added to the protein solutions in the 1.5 ml eppendorfs to initiate the reaction, with a final assay compound concentration of 8 μM. Reactions were agitated at 25° C., 700 rpm. At each time point (0, 30, 180, 360, 1440 minutes), 10 μl of the reaction mixture was removed, added to 30 μl quench solution (0.3% formic acid, 75 nM propranolol in acetonitrile) to stop the reaction and stored at 4° C. Once all reactions were quenched, the samples were centrifuged at 16000 g for 10 minutes to pellet the protein and salts. A 10 μl aliquot of supernatant containing compound was diluted in 50:50 acetonitrile:H2O in a 96 well plate. The plates were heat sealed and the samples analysed by LC-MS/MS to determine the concentration of compound remaining in the samples. To determine the reaction progress, the compound signal was normalized to the internal standard signal (propranolol). The decrease in free compound concentration is shown as a percentage over time, with the […] at time zero fixed at one hundred percent. Compound is assumed to be completely depleted when no longer detectable with a double blank sample as reference.

[2] = target: T2, K-RAS G12C (Homo sapiens, UniProt P01116, G12C); assay: Compound depletion assay, K-RAS G12C; format: binding; conditions: G12C protein 20 μM, compound 8 μM, 25° C.
T2 construct: His tag; purchased Stratech
Procedure: as §1, §2

T1 sequence (P01116 1-188 isoform P01116-2 G12D): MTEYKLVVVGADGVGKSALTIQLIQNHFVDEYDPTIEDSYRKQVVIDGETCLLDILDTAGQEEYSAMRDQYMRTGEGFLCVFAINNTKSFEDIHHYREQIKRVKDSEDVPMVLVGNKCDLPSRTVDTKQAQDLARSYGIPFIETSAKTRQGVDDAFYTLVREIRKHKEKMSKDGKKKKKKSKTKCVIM
T2 sequence (P01116 1-188 isoform P01116-2 G12C): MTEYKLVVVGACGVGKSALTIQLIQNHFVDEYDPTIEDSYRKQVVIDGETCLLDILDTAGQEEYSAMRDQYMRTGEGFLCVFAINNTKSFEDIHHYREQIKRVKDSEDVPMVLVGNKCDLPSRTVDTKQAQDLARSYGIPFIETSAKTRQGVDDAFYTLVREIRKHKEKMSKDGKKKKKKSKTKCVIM

Structure (SMILES)	30 min Category (compound remaining at timepoint) [1]	3 hr Category (compound remaining at timepoint) [1]	6 hr Category (compound remaining at timepoint) [1]	30 min Category (compound remaining at timepoint) [2]	3 hr Category (compound remaining at timepoint) [2]	6 hr Category (compound remaining at timepoint) [2]	24 hr Category (compound remaining at timepoint) [1]	24 hr Category (compound remaining at timepoint) [2]
C=CC(=O)N1CCN(c2cc(C(=O)Nc3cc(O)cc4ccccc34)nc(-c3cccc4c3cnn4C)n2)C[C@@H]1CC#N [Example 38, 6-[(3S)-3-(cyanomethyl)-4-prop-2-enoyl-piperazin-1-yl]-N-(3-hydroxy-1-naphthyl)-2-(1-methylindazol-4-yl)pyrimidine-4-carboxamide]	A (≥70% compound remaining at timepoint)	A (≥70% compound remaining at timepoint)	A (≥70% compound remaining at timepoint)	A (≥70% compound remaining at timepoint)	A (≥70% compound remaining at timepoint)	A (≥70% compound remaining at timepoint)	–	–
C=CC(=O)N1CCN(c2cc(C(=O)Nc3ccc(O)cc3)nc(OC[C@@H]3CCCN3C)n2)CC1 [Example 05]	–	A (≥70% compound remaining at timepoint)	–	–	A (≥70% compound remaining at timepoint)	–	A (≥70% compound remaining at timepoint)	A (≥70% compound remaining at timepoint)
C=CC(=O)N1CCN(c2cc(C(=O)N3CCOc4ccccc43)nc(OC[C@@H]3CCCN3C)n2)CC1 [Example 16, 1-[4-[6-(2,3-dihydro-1,4-benzoxazine-4-carbonyl)-2-[[(2S)-1-methylpyrrolidin-2-yl]methoxy]pyrimidin-4-yl]piperazin-1-yl]prop-2-en-1-one]	–	A (≥70% compound remaining at timepoint)	–	–	A (≥70% compound remaining at timepoint)	–	A (≥70% compound remaining at timepoint)	A (≥70% compound remaining at timepoint)
C=CC(=O)N1CCN(c2cc(C(=O)Nc3ccccc3O)nc(OC[C@@H]3CCCN3C)n2)CC1 [Example 06, N-(2-hydroxyphenyl)-2-[[(2S)-1-methylpyrrolidin-2-yl]methoxy]-6-(4-prop-2-enoylpiperazin-1-yl)pyrimidine-4-carboxamide]	–	A (≥70% compound remaining at timepoint)	–	–	A (≥70% compound remaining at timepoint)	–	A (≥70% compound remaining at timepoint)	A (≥70% compound remaining at timepoint)
C=CC(=O)N1CCN(c2cc(C(=O)NCc3ccccc3)nc(OC[C@@H]3CCCN3C)n2)CC1 [Example 14, N-benzyl-2-[[(2S)-1-methylpyrrolidin-2-yl]methoxy]-6-(4-prop-2-enoylpiperazin-1-yl)pyrimidine-4-carboxamide]	–	A (≥70% compound remaining at timepoint)	–	–	A (≥70% compound remaining at timepoint)	–	A (≥70% compound remaining at timepoint)	A (≥70% compound remaining at timepoint)
C=CC(=O)N1CCN(c2cc(C(=O)Nc3cc(O)cc4ccccc34)nc(-c3ccccc3)n2)C[C@@H]1CC#N [Example 24, 6-[(3S)-3-(cyanomethyl)-4-prop-2-enoyl-piperazin-1-yl]-N-(3-hydroxy-1-naphthyl)-2-phenyl-pyrimidine-4-carboxamide]	A (≥70% compound remaining at timepoint)	A (≥70% compound remaining at timepoint)	A (≥70% compound remaining at timepoint)	A (≥70% compound remaining at timepoint)	A (≥70% compound remaining at timepoint)	A (≥70% compound remaining at timepoint)	–	–
C=CC(=O)N1CCN(c2cc(C(=O)Nc3cccc4ccccc34)nc(OC[C@@H]3CCCN3C)n2)CC1 [Example 01, 2-[[(2S)-1-methylpyrrolidin-2-yl]methoxy]-N-(1-naphthyl)-6-(4-prop-2-enoylpiperazin-1-yl)pyrimidine-4-carboxamide]	–	A (≥70% compound remaining at timepoint)	–	–	A (≥70% compound remaining at timepoint)	–	A (≥70% compound remaining at timepoint)	B (30%-70% compound remaining at timepoint)
C=CC(=O)N1CCN(c2cc(NC(=O)c3cccc4ccccc34)nc(N3CCN(C)CC3)n2)CC1 [Example 12, N-[2-(4-methylpiperazin-1-yl)-6-(4-prop-2-enoylpiperazin-1-yl)pyrimidin-4-yl]naphthalene-1-carboxamide]	–	A (≥70% compound remaining at timepoint)	–	–	A (≥70% compound remaining at timepoint)	–	A (≥70% compound remaining at timepoint)	A (≥70% compound remaining at timepoint)
C=CC(=O)N1CCN(c2cc(C(=O)Nc3c(C)ccc4ncccc34)nc(OC[C@@H]3CCCN3C)n2)CC1 [Example 19, 2-[[(2S)-1-methylpyrrolidin-2-yl]methoxy]-N-(6-methyl-5-quinolyl)-6-(4-prop-2-enoylpiperazin-1-yl)pyrimidine-4-carboxamide]	–	A (≥70% compound remaining at timepoint)	–	–	A (≥70% compound remaining at timepoint)	–	A (≥70% compound remaining at timepoint)	A (≥70% compound remaining at timepoint)
C=CC(=O)N1CCN(c2cc(C(=O)Nc3cc(O)cc4ccccc34)nc(OCC3CN(C)CCO3)n2)C[C@@H]1CC#N (stereo in doubt) [Example 52, 6-[(3S)-3-(cyanomethyl)-4-prop-2-enoyl-piperazin-1-yl]-N-(3-hydroxy-1-naphthyl)-2-[[(2R)-4-methylmorpholin-2-yl]methoxy]pyrimidine-4-carboxamide]	A (≥70% compound remaining at timepoint)	A (≥70% compound remaining at timepoint)	A (≥70% compound remaining at timepoint)	C (≤30% compound remaining at timepoint)	C (≤30% compound remaining at timepoint)	C (≤30% compound remaining at timepoint)	–	–
